Holding throughout (experiment): inhibition of tumour cell growth, NCI panel, 48 h
Test [1] deals with SNB-19 CNS.
In test [2] the test system is CAKI-1 renal.
The test system of test [3] is KM12 colon.
For test [4], the system named is TK-10 renal.
Test [5] concerns HCT-116 colon.
Test [6] deals with MOLT-4 leukemia.
Test [7] concerns A549 NSCLC.
Test [8] has as its system OVCAR-3 ovarian.
Test [9] relates to KM20L2 colon.
Test [10] concerns OVCAR-4 ovarian.
The subject of test [11] is RXF 393 renal.
In test [12] the test system is COLO 205 colon.
The test system of test [13] is LOX IMVI melanoma.
For test [14], the system named is OVCAR-5 ovarian.
For test [15], the system named is SW-620 colon.
Test [16] deals with M14 melanoma.
The test system of test [17] is SK-MEL-2 melanoma.
Test [18] concerns HOP-92 NSCLC.
The test system of test [19] is PC-3 prostate.
The subject of test [20] is DU-145 prostate.

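In this assay, cells in 96-well plates receive the compound at five concentrations for 48 hours. Endpoints are linearly interpolated between the surrounding concentrations. Definition used: TGI = concentration required for complete inhibition of growth.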

Regarding `CCOC(=O)c1nc2ccc(Cl)cc2c2c1CCO2`, the TGI in [1], in test [2], in test [3], in test [4], in [5] and in test [6] was over 100 µM each time. For the same compound, the TGI in test [7], in [8], in test [9], in test [10], in [11] and in test [12] was over 100 µM in each case. Further, the TGI in [13], in test [14], in [15] and in test [16] was over 100 µM each time.

Regarding `O=C1C(Cl)C(c2ccc(Cl)cc2)N1n1cnc2ccccc2c1=O` (stereo not given), the TGI in [1], in test [2], in [3], in test [17], in test [4] and in test [5] was over 100 µM each time. Further, the TGI in test [6], in test [7], in test [8], in test [9], in [10] and in [11] was over 100 µM in each case. Further, the TGI in test [12], in [13], in test [14], in test [15] and in test [16] was over 100 µM in each case.

With `Cn1c(=O)c2c(nc(C[N+]3([O-])CCOCC3)n2C)n(C)c1=O`, the TGI in [1], in test [2], in test [3], in test [17], in [4] and in test [5] was over 100 µM in each case. Besides, the TGI in [6], in test [18], in test [7], in test [8], in test [9] and in [11] was over 100 µM each time. For the same compound, the TGI in test [12], in test [13], in test [14], in test [15] and in [16] was over 100 µM each time.

With `NC12CC3CC(C1)CC(Cl)(C3)C2`, the TGI in test [3], in test [17], in test [4], in test [5], in [6] and in [18] was over 100 µM throughout. Moreover, the TGI in test [7], in test [8], in test [9], in [11], in test [12] and in test [13] was over 100 µM throughout. The TGI in test [14], in test [15] and in [16] was over 100 µM throughout.

`COc1cccc(/C(C=O)=C(\Cl)c2ccc(OC)c(OC)c2)c1`: the TGI in test [1] turned out to be 16.3 µM; in test [2], 45.1 µM; in test [3] it was 29.1 µM; in test [17], 42.8 µM; in test [4] it was 73 µM; in test [5], 22.5 µM. Moreover, the TGI in [6] came out at 42.5 µM; in test [18], 38.7 µM; in test [7] it was 46.8 µM; in test [8] it was 30.2 µM; in test [9], 44.1 µM; in test [10], 39.1 µM. Besides, the TGI in test [11] turned out to be 25.1 µM; in test [12] it was 27.5 µM; in [13], 28.7 µM; in [14], 36.9 µM; in test [15], 29.6 µM; in [16], 31.6 µM.

Turning to `NC1=NC2(O)c3ccccc3C(=O)C2(O)N1` (stereo not given), the TGI in test [1], in test [2], in test [3], in test [17], in test [4] and in [5] was over 100 µM in each case. The TGI in test [6], in test [18], in [7], in test [8], in test [9] and in test [10] was over 100 µM throughout. Moreover, the TGI in [11], in [12], in [13], in test [14], in test [15] and in test [16] was over 100 µM throughout.

In the case of `COc1ccc(-c2onc(-c3c(C)cc(C)cc3C)c2C2=NCCCN2)cc1`, the TGI in [1] was over 100 µM; in test [2], 44.8 µM; in [3], over 100 µM; in test [17] it was 97.7 µM; in [5] it was over 100 µM; in test [6] it was over 100 µM. Further, the TGI in test [7], in test [8], in test [9], in [10], in test [11] and in [12] was over 100 µM each time. In addition, the TGI in [13] was over 100 µM; in [14], over 100 µM; in test [15], over 100 µM; in test [16] it was 40.8 µM.

Turning to `CCOC(OCC)c1ccc(/C=C/c2cc(OC)c(OC)c(OC)c2)cc1`, the TGI is over 100 µM in [1]; 74.3 µM in [2]; 82 µM in test [4]; 30.7 µM in [5]; 64.7 µM in [18]; 95.2 µM in test [7]. For the same compound, the TGI in test [8] is 38 µM; in test [9], 41.8 µM; in [10], 68.1 µM; in [11], 40.9 µM; in test [12] it was 33.5 µM; in test [13] it was 25 µM. For the same compound, the results for the TGI in test [14], in [15] and in [16] were 55.7 µM, 56.3 µM and 31.9 µM, respectively.

For the compound `CC(=O)c1c(O)ccc2c1CC(CC=O)O2` (stereo not given), the TGI is over 100 µM in [1]; over 100 µM in test [2]; over 100 µM in [3]; over 100 µM in test [4]; 41.4 µM in test [5]; over 100 µM in [6]. Also, the TGI in [18], in test [7], in test [8], in [9], in test [10] and in [11] was over 100 µM in each case. Besides, the TGI in [12] is over 100 µM; in test [13] it was 60.9 µM; in test [14], over 100 µM; in [15], over 100 µM; in test [16], over 100 µM.

For the compound `COc1ccc(/C=C2\N=C(c3ccccc3)N(Nc3nnc(NN4C(=O)/C(=C/c5ccc(OC)cc5)N=C4c4ccccc4)c4ccccc34)C2=O)cc1`, the TGI is over 100 µM in [1]; 54.3 µM in test [3]; over 100 µM in test [5]; over 100 µM in test [6]; over 100 µM in test [18]; over 100 µM in test [7]. Moreover, the TGI in [9] was over 100 µM; in [10], over 100 µM; in test [11] it was over 100 µM; in [12] it was over 100 µM; in test [13], 43 µM; in [14], over 100 µM. In addition, the TGI in test [15] and in test [16] was over 100 µM each time.

Regarding `Cc1cnc2[nH]c(-c3ccc(F)cc3)cc(=O)c2c1`, the TGI was over 100 µM in test [1]; over 100 µM in test [2]; over 100 µM in test [3]; over 82.1 µM in [17]; over 100 µM in test [4]; over 100 µM in [19]. The TGI was over 100 µM in [5]; over 91.5 µM in test [6]; over 100 µM in [18]; over 100 µM in [7]; over 78.3 µM in test [8]; over 100 µM in test [10]. Also, the TGI was over 100 µM in test [11]; over 52.7 µM in test [12]; over 100 µM in test [13]; over 100 µM in [14]; over 100 µM in [15]; over 100 µM in test [16]. In test [20], this compound came in with a TGI of over 100 µM.

Consider `COc1cc(/C=C2/SC(c3ccccc3)N(c3ccc(Cl)cc3)C2=O)cc(OC)c1OC` (stereo not given), for which the TGI in [1], in test [2], in [3], in test [17], in test [4] and in test [19] was over 100 µM throughout. Also, the TGI in [5], in [6], in test [18], in test [7], in test [8] and in test [10] was over 100 µM in each case. Besides, the TGI is over 100 µM in test [11]; over 42.6 µM in [12]; over 100 µM in [13]; over 100 µM in test [14]; over 100 µM in test [15]; over 63.3 µM in test [16]. This compound returned a TGI in test [20] of over 100 µM.

Consider `NC1=CC(C(=O)c2ccncc2)c2nc3ccccc3nc21` (stereo not given), for which the TGI in [1], in test [2], in test [3], in test [17], in test [4] and in test [19] was over 100 µM in each case. Also, the TGI in test [5], in test [6], in [18], in [7], in [8] and in [10] was over 100 µM in each case. In addition, the TGI was over 100 µM in test [11]; over 100 µM in test [12]; 88.1 µM in test [13]; over 100 µM in [14]; over 100 µM in [15]; over 100 µM in [16]. This compound also displayed a TGI in [20] of over 100 µM.

Source of the values: PubChem BioAssay (NCI).
